This assay addresses BACE 1 (Homo sapiens (Human), UniProt P56817). The assay is described as follows: ECL assay of beta-secretase (BACE) enzyme inhibition. Type of assay: biochemical. The settings on record: homogeneous end point ECL assay, biotinylated BACE substrate, soluble human enzyme, pH 6.5, rt. The protocol:
Enzyme inhibition is determined as follows.
ECL Assay: A homogeneous end point electrochemiluminescence (ECL) assay is performed using a biotinylated BACE substrate. The Km of the substrate is approximated at 50 μM. A typical reaction contains approximately 0.6 nM enzyme, 0.25 μM of the substrate, and buffer (50 mM Pipes, pH 6.5, 0.1 mg/ml BSA, 0.2% CHAPS, 15 mM EDTA and 1 mM deferoxamine) in a total reaction volume of 100 μl. The reaction proceeds for 1-2 hrs and is then stopped by the addition of 150 μL of a quench cocktail solution (25 μl M Tris-HCl, pH 8.0, 50 μl INC buffer (2% BSA, 0.2% Tween-20 and 0.05% sodium azide diluted in Phosphate buffered saline (PBS) plus 75 μL PBS), containing Streptavidin coated magnetic beads and ruthenylated antibody which specifically recognizes the C-terminal residue of the product. The samples are subjected to M-384 (Igen Inc., Gaithersburg, Md.) analysis. Under these conditions, less than 10% of substrate is processed by BACE 1. The enzyme used in these studies is soluble (transmembrane domain and cytoplasmic extension excluded) human protein produced in a baculovirus expression system. To measure the inhibitory potency for compounds, 10 concentrations of inhibitors are prepared starting from 200 μM with three fold series dilution. Solutions of the inhibitor in DMSO are included in the reaction mixture (final DMSO concentration is 10%). All experiments are conducted at rt using the standard reaction conditions described above. To determine the IC50 of the compound, a four parameter equation is used for curve fitting. The errors in reproducing the dissociation constants are typically less than two-fold.

Sequence of BACE 1 (P56817 46-457): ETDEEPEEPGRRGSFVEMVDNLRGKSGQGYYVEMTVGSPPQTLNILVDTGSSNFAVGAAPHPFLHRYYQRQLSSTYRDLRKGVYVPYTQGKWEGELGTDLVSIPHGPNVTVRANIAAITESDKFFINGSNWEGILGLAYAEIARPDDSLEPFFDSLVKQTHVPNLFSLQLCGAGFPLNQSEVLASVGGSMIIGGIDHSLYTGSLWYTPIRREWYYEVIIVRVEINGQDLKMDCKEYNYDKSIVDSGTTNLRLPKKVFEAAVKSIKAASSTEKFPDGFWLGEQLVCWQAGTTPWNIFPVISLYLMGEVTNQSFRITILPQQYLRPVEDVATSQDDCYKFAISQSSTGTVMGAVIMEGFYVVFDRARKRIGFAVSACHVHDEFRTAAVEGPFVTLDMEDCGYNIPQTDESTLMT

`COc1cccc2c1OCC[C@]21CNC[C@H]1C(=O)N1CC[C@@H](c2ccccc2)C[C@H]1C1CCCC(F)(F)C1` (stereo partly drawn) [Example 3, [(4R,4′S)-8-methoxy-2,3-dihydrospiro[chromene-4,3′-pyrrolidin]-4′-yl][(2S,4R)-2-(3,3-difluorocyclohexyl)-4-phenylpiperidin-1-yl]methanone]: the concentration for half-maximal inhibition (IC50) was 2190 nM.
Then `CC(C)[C@@H]1C[C@H](c2ccccc2)CCN1C(=O)[C@@H]1CNC[C@]12CCCc1ccccc12` [Example 7, (1R,4′S)-3,4-dihydro-2H-spiro[naphthalene-1,3′-pyrrolidin]-4′-yl[(2S,4R)-4-phenyl-2-(propan-2-yl)piperidin-1-yl]methanone], with 22000 nM; and `COC(C)(C)C1CCCCN1C(=O)[C@@H]1CNC[C@@]12CCCc1ccccc12` (stereo partly drawn) [Example 10, (1S,4′S)-3,4-dihydro-2H-spiro[naphthalene-1,3′-pyrrolidin]-4′-yl[2-(2-methoxypropan-2-yl)piperidin-1-yl]methanone], with 20000 nM.
Then `O=C([C@@H]1CNC[C@]12CCCc1cc(Cl)ccc12)N1CCC(c2ccccc2)CC1` [Example 19, [(1R,4′S)-6-chloro-3,4-dihydro-2H-spiro[naphthalene-1,3′-pyrrolidin]-4′-yl](4-phenylpiperidin-1-yl)methanone], with 920 nM; and `O=C([C@@H]1CNC[C@]12CCc1ccccc12)N1CC[C@@H](c2ccccc2)C[C@H]1c1ccccc1` [Example 21, (1R,4′S)-2,3-dihydrospiro[indene-1,3′-pyrrolidin]-4′-yl[(2S,4R)-2,4-diphenylpiperidin-1-yl]methanone], with 71 nM.
The same measure for `O=C([C@@H]1CNC[C@]12CCc1cc(Br)ccc12)N1CCC(c2ccccc2)CC1` [Example 30, [(1R,4′S)-5-bromo-2,3-dihydrospiro[indene-1,3′-pyrrolidin]-4′-yl](4-phenylpiperidin-1-yl)methanone]: 14000 nM; for `CC(C)c1cccc2c1CCC[C@]21CNC[C@H]1C(=O)N1CCC(c2ccccc2)CC1` [Example 31, (4-phenylpiperidin-1-yl)[(1R,4′S)-5-(propan-2-yl)-3,4-dihydro-2H-spiro[naphthalene-1,3′-pyrrolidin]-4′-yl]methanone]: 24 nM.
For the compound `O=C([C@@H]1CNC[C@]12CCSc1ccccc12)N1CCC(c2ccccc2)CC1` [Example 38, (3R,4S)-2′,3′-dihydrospiro[pyrrolidine-3,4′-thiochromen]-4-yl(4-phenylpiperidin-1-yl)methanone], half-maximal inhibition (IC50) was put at 12000 nM.
For the compound `CCc1ccc2c(c1)CCC[C@]21CNC[C@H]1C(=O)N1CCC(c2ccccc2)CC1` [Example 44, [(1R,4′S)-6-ethyl-3,4-dihydro-2H-spiro[naphthalene-1,3′-pyrrolidin]-4′-yl](4-phenylpiperidin-1-yl)methanone], the 50% inhibitory concentration (IC50) is 19000 nM.
The same measure for `O=C([C@@H]1CNC[C@]12CCCc1nc(Cl)ccc12)N1CCC2(C=Cc3ccccc32)CC1c1ccccc1` (stereo partly drawn) [Example 77, [(3R,4S)-2′-chloro-7′,8′-dihydro-6′H-spiro[pyrrolidine-3,5′-quinolin]-4-yl](2′-phenyl-1′H-spiro[indene-1,4′-piperidin]-1′-yl)methanone]: 200 nM.
The same measure for `Cc1cccc(C2CC(c3ccccc3)CCN2C(=O)[C@@H]2CNC[C@]23CCCc2nc(Cl)ccc23)c1` (stereo partly drawn) [Example 100, [(3R,4S)-2′-chloro-7′,8′-dihydro-6′H-spiro[pyrrolidine-3,5′-quinolin]-4-yl][2-(3-methylphenyl)-4-phenylpiperidin-1-yl]methanone]: 450 nM.

The record behind these values is patent US8865701B2, “Spiropyrrolidine beta-secretase inhibitors for the treatment of alzheimer'S disease” (Merck Sharp & Dohme Corp., priority 2009, dated 2014).
